{"source": "patent US4287186A", "about": "“Antibiotics, a process for their preparation and their use as plant protection agents” (Bayer Aktiengesellschaft, priority 1979, dated 1981)", "key": {"[1]": {"tested_on": "Megoura viciae (vetch aphid)", "details": "in vivo", "protocol": "The tests with Megoura viciae were carried out on potted field bean plants (Vicia faba, variety \"Saxa\") under laboratory conditions. The test animals were transferred to the test plants only after the plants had been treated and the spray coating had dried on. The tests were as a rule evaluated 5 days after the start of the test, calculated from the time at which the test animals were introduced."}, "[2]": {"format": "physicochemical", "from_the_text": "(e) Thin layer chromatography: Three ninhydrin-positive spots, of which, in each case, only one spot corresponds to the substances which is active in the bioautogram, are found in all the solvent systems used which contain acetic acid. This fact could be ascribed to the lability of the antibiotic in acetic acid solution. In neutral solvent systems, only one ninhydrin-positive spot is found in each case."}}, "data": [{"substance": "Nikkomycin", "values": [{"measurement": "mortality of the larvae which had developed normally during the ecdysis stages", "setting": "[1]", "value": "more than 90%"}, {"measurement": "stability in acetic acid solution", "setting": "[2]", "value": "lability"}]}]}
